“Also recorded” adds a separate entry of the source. Where two headings read alike, the source gives them in different places.

For series [1], the system named is CMK cells. Put plainly: Polyploidization, proliferation, apoptosis and CD41/CD42 expression in CMK cells. It is filed as cell-based, human.
The subject of series [2] is CMK cells. Type of series: cell-based, human. As to conditions: three-day incubation.
The test system of the next series is 402 purified kinases. Nature of the series: Ambit KinomeScan kinase binding profile. As to conditions: of 402 kinases; 5 µM diMF.
The next series concerns AMKL-derived cells. Nature of the series: Phenotype in AMKL-derived cells. Type of series: cell-based. As to conditions: data not shown.
For series [3], the system named is leukemia blasts that harbor activated oncogenic forms of KIT, FLT3, and BCR-ABL. The following applies: ref Mali et al., 2011; cited from earlier work.
The next series concerns tg-ERG cells. Nature of the series: AMKL cell line derived from ERG transgenic mice. As to conditions: tg-ERG cells (data not shown). It is filed as cell-based.
The test system of series [4] is murine bone marrow-derived megakaryocytes. Nature of the series: Primary murine hematopoietic progenitor cells cultured with THPO. It is filed as cell-based. The following applies: primary mouse bone marrow cells cultured ex vivo.
The test system of series [5] is 6133/MPL cells. Put plainly: 6133/MPL cells in vitro. Type of series: cell-based. As to conditions: 6133/MPL murine cell line.
The subject of series [6] is 6133/MPL cells. Nature of the series: Transplantation of drug-pre-treated 6133/MPL cells into mice. Type of series: in vivo, C57Bl/6 mice.
In series [7] the test system is 6133/MPL cells. Put plainly: Drug treatment of mice transplanted with 6133/MPL cells. Type of series: in vivo, C57Bl/6 mice.
In series [8] the test system is human CD41+ non-DS-AMKL blasts. Put plainly: Human non-DS-AMKL blasts cultured ex vivo. Type of series: cell-based. The following applies: 0.1 µM, 6 days.
In the next series the target is T1, AURKA (Homo sapiens, UniProt O14965).
T1 sequence (O14965 1-403): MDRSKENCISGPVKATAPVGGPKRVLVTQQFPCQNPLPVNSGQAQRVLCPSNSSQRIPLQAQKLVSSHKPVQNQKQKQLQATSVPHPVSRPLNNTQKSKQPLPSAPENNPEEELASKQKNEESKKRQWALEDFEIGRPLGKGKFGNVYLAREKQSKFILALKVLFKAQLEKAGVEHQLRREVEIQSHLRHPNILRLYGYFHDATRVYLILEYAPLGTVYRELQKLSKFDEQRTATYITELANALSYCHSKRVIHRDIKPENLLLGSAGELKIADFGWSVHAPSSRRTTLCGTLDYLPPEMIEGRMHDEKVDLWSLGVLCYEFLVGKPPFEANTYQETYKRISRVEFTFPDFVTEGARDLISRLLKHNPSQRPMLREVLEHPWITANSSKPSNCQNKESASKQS
Nature of the series: Phosphorylation of Aurora kinases in CMK cells by Western blot. It is filed as cell-based. For orientation: A western blot detects proteins with antibodies after separation by electrophoresis.

The next series concerns the target AURKB (Homo sapiens, UniProt Q96GD4). The description is as above. It is filed as cell-based.
Another series deals with phospho-histone H3. Nature of the series: Phosphorylation of histone H3 in CMK cells. It is filed as cell-based, human.
Series [9] has as its system primary human megakaryocytes. Nature of the series: Primary human megakaryocytes expanded from CD34+ cells. Type of series: cell-based.
Another series can be described thus: in vivo. The following applies: C57Bl/6, mouse, plasma, po, 15 mg/kg.
The test system of the next series is AURKA relative to AURKB. The following applies: ref Gorgun et al., 2010; Manfredi et al., 2011; cited from earlier work.
A short description of series [10]: Oral pharmacokinetics, plasma concentration after a single dose. As to conditions: single oral administration of 15 mg/kg.
Where [11] appears, read: CMK cells, 72 hr, Fig 2: K252a, latrunculin B, diMF 5 µM, SU6656 4 µM.
Where [12] appears, read: 1 µM, CMK cells (data not shown).
Where [13] appears, read: CMK cells, 0.1 µM paclitaxel 18 hr then compound 2 hr.

Sequence of AURKB (Q96GD4 whole entry): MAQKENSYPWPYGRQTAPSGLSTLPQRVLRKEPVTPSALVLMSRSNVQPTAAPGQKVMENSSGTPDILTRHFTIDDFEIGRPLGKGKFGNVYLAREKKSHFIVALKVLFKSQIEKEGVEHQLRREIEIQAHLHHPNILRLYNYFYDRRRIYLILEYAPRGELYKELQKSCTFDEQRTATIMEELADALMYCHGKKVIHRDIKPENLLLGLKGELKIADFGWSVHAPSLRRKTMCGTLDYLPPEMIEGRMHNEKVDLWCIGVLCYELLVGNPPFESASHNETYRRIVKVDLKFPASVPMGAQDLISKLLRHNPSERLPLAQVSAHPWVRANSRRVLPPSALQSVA

Regarding `CN(C)S(=O)(=O)c1ccc2c(c1)/C(=C/c1cc3c([nH]1)CCCC3)C(=O)N2` [SU6656], in the series on CMK cells [1] (setting [11]), the apoptosis entry is listed as “inducing”, the polyploidization result was “inducing” and the proliferation entry is “inhibited”.

Consider `C/C1=C/C(=O)O[C@@H]2C[C@@H](CC[C@H](C)/C=C\CC1)O[C@@](O)([C@@H]1CSC(=O)N1)C2` [latrunculin B], for which the “screening positive: increased fraction of cells with DNA content beyond a cutoff (between 4N and 8N) compared to DMSO” value (“screening positive: increased fraction” below) in the series with CMK cells [2] is reported as “positives”. Besides, in the series with CMK cells [1] (setting [11]), the apoptosis result was “inducing”, the polyploidization result was “inducing” and the proliferation entry is listed as “inhibited”.

Regarding `O=S(=O)(c1cccc2cnccc12)N1CCCNCC1` [fasudil], in the series on 402 purified kinases, the “number of kinases whose binding to the immobilized ligand was inhibited by more than 65%” value amounted to 27. For the same molecule, the “activity / phenotype in AMKL-derived cells compared with diMF” value in the series on AMKL-derived cells is listed as “did not fully recapitulate the strong phenotype; also recorded: lack of activity”. In addition, the “growth of leukemia cells in vivo and in vitro” value in series [3] is “restricted the growth”.

The Cmax is the peak of the concentration-time curve. Usually Tmax stands for the time from dosing to the highest level. As usually defined, the half-life is the time needed for the level to fall by half in the phase considered. A high value points to slow decline. As to `COc1cc(Nc2ncc3c(n2)-c2ccc(Cl)cc2C(c2c(F)cccc2OC)=NC3)ccc1C(=O)O` [MLN8237, Alisertib], in the series on CMK cells [1] (setting [11]), the apoptosis result was “induced”, the polyploidization entry was “induced robust polyploidization” and the proliferation entry is “restricted proliferation”. In the series with tg-ERG cells, the “proliferation and megakaryocyte lineage-specific surface marker expression” value was “induced proliferation arrest and megakaryocyte lineage-specific surface marker expression”. Also, the “polyploidization and expression of CD41 and CD42” value in series [4] is “induced polyploidization and expression of CD41 and CD42”. For the same molecule, the “polyploidization, CD41 and CD42 expression, and apoptosis” value in the series on 6133/MPL cells [5] was “increased polyploidization, CD41 and CD42 expression, and apoptosis”. In the series with 6133/MPL cells [6] (6133/MPL cells pre-treated 24 hr with 1 µM), the “animals surviving up to 120 days after transplantation of pre-treated cells” value is recorded as 80%. For the same molecule, the “infiltration of leukemic cells (liver, lung)” value in the series on 6133/MPL cells [7] (15 mg/kg) is “striking reduction of infiltration of leukemic cells”. The “peripheral white blood cell count, spleen and liver weights” value with 6133/MPL cells [7] (15 mg/kg for 2 weeks vs vehicle) was “significantly reduced peripheral white blood cell count and spleen and liver weights”. Besides, the “polyploidization and proliferation of human non-DS AMKL cells” value in series [8] was “induced both polyploidization and proliferative arrest”. In addition, on AURKA, the “AURKA phosphorylation / autophosphorylation” value is listed as “reduced AURKA autophosphorylation” and the “autophosphorylation of AURKA” value was “inhibited autophosphorylation of AURKA”. On AURKB (0.1 µM, CMK cells), the “autophosphorylation of AURKB” value is “but not AURKB”. For the same molecule, the “phospho-histone H3 level” value in the series on phospho-histone H3 is listed as “accumulation of phospho-histone H3”. Further, the “polyploidization of primary human megakaryocytes” value in [9] is “induced robust and selective polyploidization”. Moreover, in the series “in vivo”, the peak level (Cmax) was 34.8 µM, the Tmax was 0.5 h and the half-life was 3.1 h. The “selectivity for AURKA relative to AURKB in cells” value in the series on AURKA relative to AURKB was 200 fold. In series [10], the bioavailability entry is reported as “excellent bioavailability” and the “mean plasma concentrations for at least 12 hr” value is “above 0.5 µM”.

As for `CCN(CCO)CCCOc1ccc2c(Nc3cc(CC(=O)Nc4cccc(F)c4)[nH]n3)ncnc2c1` [AZD1152-HQPA], in the series with CMK cells [1] (setting [11]), the apoptosis entry is on record as “induced”, the polyploidization result was “induced robust polyploidization” and the proliferation result is on record as “restricted proliferation”. Moreover, the “proliferation and megakaryocyte lineage-specific surface marker expression” value in the series with tg-ERG cells was “induced proliferation arrest and megakaryocyte lineage-specific surface marker expression”. Also, the “polyploidization, CD41 and CD42 expression, and apoptosis” value in the series with 6133/MPL cells [5] is “increased polyploidization, CD41 and CD42 expression, and apoptosis”. The “leukemia development after transplantation of pre-treated cells” value with 6133/MPL cells [6] (6133/MPL cells pre-treated 24 hr with 3 µM) is given as “failed to significantly interfere with leukemia development”. The phospho-AURKA result on AURKA (setting [12]) is “complete loss of phospho-AURKA and AURKB”. Further, the “AURKA phosphorylation / autophosphorylation” value at AURKA (setting [13]) is “reduced phosphorylation of both Aurora A and B kinases”. At AURKB (setting [12]), the phospho-AURKB result is “complete loss of phospho-AURKA and AURKB”. Besides, the AURKB phosphorylation result at AURKB (setting [13]) is “reduced phosphorylation of both Aurora A and B kinases”. In addition, the “phospho-histone H3 level” value in the series on phospho-histone H3 is reported as “reduction in phospho-histone H3”. For the same molecule, the “polyploidization of primary human megakaryocytes” value in series [9] was “induced robust and selective polyploidization”.

With `c1nc2nc(Nc3ccc(N4CCOCC4)cc3)nc(NC3CCCCC3)c2[nH]1` [reversine], the “screening positive: increased fraction” value with CMK cells [2] is reported as “identified”. In the series on CMK cells [1] (setting [11]), the apoptosis entry is reported as “inducing”, the polyploidization entry is recorded as “inducing” and the proliferation result is “inhibited”.

Take `C=C1[C@@H](C)[C@H]2[C@H](Cc3ccccc3)NC(=O)[C@]23OC(=O)/C=C/[C@H](O)CCC[C@@H](C)C/C=C/[C@H]3[C@@H]1O` [cytochalasin B]: the “screening positive: increased fraction” value with CMK cells [2] was “positives”.

Turning to JAK3 inhibitor VI, the “screening positive: increased fraction” value with CMK cells [2] is “identified”. Moreover, in the series with CMK cells [1], the apoptosis entry is “inducing” and the polyploidization entry was “inducing; also recorded: Induction of CMK polyploidization”.

Turning to `COC(=O)[C@@]1(O)C[C@H]2O[C@]1(C)n1c3ccccc3c3c4c(c5c6ccccc6n2c5c31)C(=O)NC4` [K252a], the “screening positive: increased fraction” value in the series on CMK cells [2] is “identified”. In the series with CMK cells [1] (setting [11]), the apoptosis entry is “inducing”, the polyploidization result is “inducing” and the proliferation entry is on record as “inhibited”.

Source of the values: publication PMC3613864 (Cell, 2012).
